pIC50, pKi: −log10 of the molar value.
How the values were obtained:
[1] = DRUGMATRIX: Imidazoline I2, Central radioligand binding (ligand: [3H] Idazoxan); assay type: cell membranes, Rattus norvegicus, Wistar, Cerebral cortex, Membrane; conditions: Not Active = under 50% inhibition at 10 µM; for pIC50: read-out: IC50; for pKi: read-out: Ki
[2] = DRUGMATRIX: Phosphodiesterase PDE4 enzyme inhibition (substrate: [3H]cAMP + cAMP); conditions: u-937, Not Active = under 50% inhibition at 10 µM
[3] = DRUGMATRIX: Calcium Channel Type L, Benzothiazepine radioligand binding (ligand: [3H] Diltiazem); assay type: cell membranes, Rattus norvegicus, Wistar, Brain, Membrane; conditions: Not Active = under 50% inhibition at 10 µM; for pIC50: read-out: IC50; for pKi: read-out: Ki
[4] = molecular target: C-C chemokine receptor type 2 (Homo sapiens, UniProt P41597); assay type: cell membranes, CHO-K1, Membrane; also: in other assays of this panel Not Active means under 50% inhibition at 10 µM
[5] = molecular target: Mitogen-activated protein kinase 14 (Homo sapiens, UniProt Q16539); design: species or system Escherichia coli;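 also: inhibition of p38alpha enzyme activity in a biochemical kinase assay, with myelin basic protein serving as substrate; in other assays of this panel Not Active means under 50% inhibition at 10 µM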
Mitogen-activated protein kinase 14, sequence (Q16539 whole entry): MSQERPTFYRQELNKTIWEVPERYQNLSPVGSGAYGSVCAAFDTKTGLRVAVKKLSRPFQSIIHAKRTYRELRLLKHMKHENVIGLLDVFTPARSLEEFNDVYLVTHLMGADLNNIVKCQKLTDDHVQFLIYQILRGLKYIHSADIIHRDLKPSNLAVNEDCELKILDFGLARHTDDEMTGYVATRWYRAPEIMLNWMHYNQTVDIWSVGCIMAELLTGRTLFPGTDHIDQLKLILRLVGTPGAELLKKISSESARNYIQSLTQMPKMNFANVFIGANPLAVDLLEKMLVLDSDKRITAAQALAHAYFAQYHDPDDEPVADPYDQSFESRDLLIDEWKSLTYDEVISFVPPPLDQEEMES

C-C chemokine receptor type 2, sequence (P41597 whole entry): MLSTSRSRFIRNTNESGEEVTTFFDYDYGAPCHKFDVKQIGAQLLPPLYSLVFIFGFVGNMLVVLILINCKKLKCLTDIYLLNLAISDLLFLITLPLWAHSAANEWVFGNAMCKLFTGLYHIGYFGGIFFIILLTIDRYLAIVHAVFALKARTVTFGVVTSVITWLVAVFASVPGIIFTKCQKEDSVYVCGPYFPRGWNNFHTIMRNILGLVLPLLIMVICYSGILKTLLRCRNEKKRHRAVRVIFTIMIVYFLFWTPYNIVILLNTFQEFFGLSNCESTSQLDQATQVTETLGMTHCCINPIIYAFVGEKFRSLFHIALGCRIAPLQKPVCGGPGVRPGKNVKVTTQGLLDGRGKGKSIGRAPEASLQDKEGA

Molecule	IC50 [1]	Ki [1]	IC50 [2]	Ki [2]	IC50 [3]	Ki [3]	IC50 ([4]; cho-k1)	IC50 [5]	pIC50 ([2]; read-out: IC50)	pIC50 ([4]; read-out: IC50)	pKi ([4]; read-out: Ki)	pIC50 [3]	pKi [3]	pIC50 [1]	pKi [1]	pIC50 ([5]; read-out: IC50)	Ki ([4]; cho-k1)	Ki [5]
C#C[C@]1(O)CC[C@H]2[C@@H]3[C@H](C)CC4=C(CCC(=O)C4)[C@H]3CC[C@@]21C [TIBOLONE]	Not Active	Not Active	Not Active	Not Active	Not Active	Not Active	Not Active	Not Active										
CN1C(=O)OC(C)(C)C1=O [TRIMETHADIONE]	Not Active	Not Active	Not Active	Not Active	Not Active	Not Active	Not Active	Not Active										
OC[C@@H](O)[C@@H](O)[C@H](O)[C@H](O)CO [MANNITOL]	Not Active	Not Active	Not Active	Not Active	Not Active	Not Active	Not Active	Not Active										
CCN(CC)C(=S)SSC(=S)N(CC)CC	Not Active	Not Active			Not Active	Not Active		Not Active	5.32	5.61	6.02							
O=C(O)c1cc(/N=N/c2ccc(S(=O)(=O)Nc3ccccn3)cc2)ccc1O [SULFASALAZINE]	Not Active	Not Active	Not Active	Not Active	Not Active	Not Active	Not Active	Not Active										
O=C(c1ccccc1)c1ccc2n1CCC2C(=O)O (stereo unspecified) [KETOROLAC]	Not Active	Not Active	Not Active	Not Active	Not Active	Not Active	Not Active	Not Active										
CC[C@H](C)[C@@H](CO[C@@H](Cc1ccccc1)C(=O)N[C@@H](CCS(C)(=O)=O)C(=O)OC(C)C)NC[C@@H](N)CS	Not Active	Not Active	Not Active	Not Active			Not Active	Not Active				5.45	5.50					
CC(C)(C)NC[C@H](O)COc1cccc2c1CCCC2=O [LEVOBUNOLOL]	Not Active	Not Active	Not Active	Not Active	Not Active	Not Active	Not Active	Not Active										
C[N+]1(C)[C@@H]2C[C@@H](OC(=O)[C@H](CO)c3ccccc3)C[C@H]1[C@@H]1O[C@@H]12.[Br-] [METHSCOPOLAMINE BROMIDE]	Not Active	Not Active	Not Active	Not Active	Not Active	Not Active	Not Active	Not Active										
CO[C@@H]1[C@@H](OC)[C@H](C)[C@@](O)(CC(=O)O)O[C@H]1[C@H](C)[C@H]1O[C@@]2(CC[C@@](C)([C@H]3CC[C@@](C)([C@@H]4O[C@@H]([C@H]5O[C@](C)(O)[C@H](C)C[C@@H]5C)C[C@@H]4O[C@@H]4C[C@H](OC)[C@@H](OC)[C@H](C)O4)O3)O2)C[C@H](O)[C@H]1C.N [MADURAMICIN]	Not Active	Not Active	Not Active	Not Active	Not Active	Not Active	Not Active	Not Active										
Cc1nnc(NS(=O)(=O)c2ccc(N)cc2)s1 [SULFAMETHIZOLE]	Not Active	Not Active	Not Active	Not Active	Not Active	Not Active	Not Active	Not Active										
Cc1cnc(NC(=O)C2=C(O)c3ccccc3S(=O)(=O)N2C)s1 [MELOXICAM]	Not Active	Not Active	Not Active	Not Active	Not Active	Not Active	Not Active	Not Active										
CC1=C(/C=C/C(C)=C/C=C/C(C)=C/C(=O)O)C(C)(C)CCC1 [TRETINOIN]	Not Active	Not Active	Not Active	Not Active	Not Active	Not Active	Not Active	Not Active										
Cc1ccc(S(=O)(=O)NC(=O)NN2CCCCCC2)cc1 [TOLAZAMIDE]	Not Active	Not Active	Not Active	Not Active	Not Active	Not Active	Not Active	Not Active										
Cc1cccc(C)c1NC(=O)C(C)N (stereo unspecified) [TOCAINIDE]	Not Active	Not Active	Not Active	Not Active	Not Active	Not Active	Not Active	Not Active										
Cc1cc2c(s1)Nc1ccccc1N=C2N1CCN(C)CC1 [OLANZAPINE]							Not Active	Not Active										
COC(=O)Nc1nc2ccc(C(=O)c3ccccc3)cc2[nH]1 [MEBENDAZOLE]	Not Active	Not Active	Not Active	Not Active	Not Active	Not Active	Not Active	Not Active										

Molecule	IC50 [1]	Ki [1]	IC50 [2]	Ki [2]	IC50 [3]	Ki [3]	IC50 ([4]; cho-k1)	IC50 [5]	pIC50 ([2]; read-out: IC50)	pIC50 ([4]; read-out: IC50)	pKi ([4]; read-out: Ki)	pIC50 [3]	pKi [3]	pIC50 [1]	pKi [1]	pIC50 ([5]; read-out: IC50)	Ki ([4]; cho-k1)	Ki [5]
O=C1CC[C@@]2(O)[C@H]3Cc4ccc(O)c5c4[C@@]2(CCN3CC2CC2)[C@H]1O5 [NALTREXONE]	Not Active	Not Active	Not Active	Not Active	Not Active	Not Active	Not Active	Not Active										
CCN(CC)CCNC(=O)c1cc(Cl)c(N)cc1OC [METOCLOPRAMIDE]			Not Active	Not Active	Not Active	Not Active	Not Active	Not Active						6.15	6.33			
CCOc1cc(N)c(Cl)cc1C(=O)NCC1CN(Cc2ccc(F)cc2)CCO1 (stereo unspecified) [MOSAPRIDE]	Not Active	Not Active	Not Active	Not Active	Not Active	Not Active	Not Active	Not Active										
Cc1ccc(Cl)c(Nc2ccccc2C(=O)O)c1Cl [MECLOFENAMIC ACID]	Not Active	Not Active	Not Active	Not Active	Not Active	Not Active	Not Active	Not Active										
CN1C[C@H](CNC(=O)OCc2ccccc2)C[C@@H]2c3cccc4c3c(cn4C)C[C@H]21 [METERGOLINE]			Not Active	Not Active			Not Active	Not Active				6.57	6.62	5.72	5.89			
O=[As][O-].[Na+] [SODIUM ARSENITE]	Not Active	Not Active	Not Active	Not Active	Not Active	Not Active	Not Active	Not Active										
CC(=O)O[C@]1(C(C)=O)CC[C@H]2[C@@H]3C[C@H](C)C4=CC(=O)CC[C@]4(C)[C@H]3CC[C@@]21C [MEDROXYPROGESTERONE ACETATE]	Not Active	Not Active	Not Active	Not Active	Not Active	Not Active	Not Active	Not Active										
CCN1CCCC1CNC(=O)c1cc(S(N)(=O)=O)ccc1OC (stereo unspecified) [SULPIRIDE]	Not Active	Not Active	Not Active	Not Active	Not Active	Not Active	Not Active	Not Active										
CC(O)C(=O)O (stereo unspecified) [LACTIC ACID]	Not Active	Not Active	Not Active	Not Active	Not Active	Not Active	Not Active	Not Active										
CC(Cl)(Cl)Cl [TRICHLOROETHANE]	Not Active	Not Active	Not Active	Not Active	Not Active	Not Active	Not Active	Not Active										
CCC(C)(C)C(=O)O[C@H]1C[C@@H](C)C=C2C=C[C@H](C)[C@H](CC[C@@H]3C[C@@H](O)CC(=O)O3)[C@H]21 [SIMVASTATIN]	Not Active	Not Active	Not Active	Not Active	Not Active	Not Active	Not Active	Not Active										
Cc1ccnc(NS(=O)(=O)c2ccc(N)cc2)n1 [SULFAMERAZINE]	Not Active	Not Active	Not Active	Not Active	Not Active	Not Active	Not Active	Not Active										
CCN(CC)N=O [N-NITROSODIETHYLAMINE]	Not Active	Not Active	Not Active	Not Active	Not Active	Not Active	Not Active	Not Active										
CC#C[C@]1(O)CC[C@H]2[C@@H]3CCC4=CC(=O)CCC4=C3[C@@H](c3ccc(N(C)C)cc3)C[C@@]21C [MIFEPRISTONE]	Not Active	Not Active	Not Active	Not Active			Not Active					4.54	4.59			4.08		
LEAD(IV) ACETATE	Not Active	Not Active	Not Active	Not Active	Not Active	Not Active	Not Active	Not Active									Not Active	Not Active
CN(C)CCC=C1c2ccccc2COc2ccccc21 [DOXEPIN]							Not Active	Not Active										
CNCCCC12CCC(c3ccccc31)c1ccccc12 [MAPROTILINE]							Not Active	Not Active										
